Experimental data published in patent US20180296456A1, “Decapeptide-12 Modulation of Sirtuin Gene Expression in Epidermal Keratinocyte Progenitors” (Escape Therapeutics, Inc., priority 2017, published 2018).
Several values for one entry are separate records, joined by “and”; a condition that tells them apart may be missing. Equal entries are not always repeated. Ends that are not written are not given here.

Legend:
[1] = tested on: SIRT5; experiment: SIRT5 transcription, semi-quantitative RT-PCR in human epidermal progenitors; format: cell-based; details: 1000 μM, 72 h
Procedure: (§1) Human neonatal epidermal progenitors (Thermo Fisher Scientific, NY) were seeded in 6-well plates at a density of 2×10^5 cells/well. Each well received 2 ml of Epilife media containing 60 μM calcium chloride (Thermo Fisher Scientific, NY). Plates were incubated in a humidified chamber at 37 degrees Celsius and 5 percent CO2. Twenty-four hours later, cells were treated with various concentrations of oxyresveratrol or decapeptide-12 dissolved in PBS containing 5 percent DMSO. Control wells received vehicle only (5 percent DMSO and PBS). Final concentration of DMSO in each well was 0.05 percent.
(§2) After a 72 hour incubation period, cells were trypsinized and total RNA extracted, using RNeasy kit (Qiagen, Valencia, Calif.) according to the manufacturer's protocol.
(§3) RNA concentration was determined using nanodrop (Thermo fisher scientific, NY). Two μg of total RNA were used to synthesize cDNA using oligo dT primers and TaqMan reverse transcription reagents (Thermo fisher scientific, NY). The reaction was carried out in DNA Engine Peltier Thermal Cycler (Bio-Rad, Hercules, Calif.). The annealing temperature was 25 degrees Celsius for 10 minutes, followed by first strand synthesis at 48 degrees Celsius for 1 hour, and heat inactivation at 95 degrees Celsius for 5 minutes.
(§4) The SIRT1-7 primers (table 1) were designed using Primer3. The semi-quantitative PCR reactions were performed on a DNA Engine Peltier Thermo Cycler (Bio-Rad, Hercules, Calif.). PCR was carried under the following conditions: denaturation at 94 degrees Celsius for 2 minutes and primer extension at 54 degrees Celsius for 30 seconds in 34 cycles for SIRT 1-7 and the housekeeping gene 18S.
(§5) Samples were run and resolved on a 1.5 percent agarose gel containing 0.5 μg/ml of ethidium bromide and imaged using the FluorChem HD2 Imaging System (Protein simple, San Jose, Calif.). Densitometry analysis was carried out using the AlphaEase FC software (Protein simple, San Jose, Calif.). Intensity ratios were calculated as the intensity value for each gene divided by the intensity value of the internal control gene 18S.
(§6) The effect of the decapeptides P4, P4A, P4B, and P4C upon the transcription levels of sirtuins 1-7 was evaluated. Table 4 summarizes transcription levels for all four decapeptides with the corresponding genes, at tested concentrations of: 10, 30, 50, 100, and 300 (all in μM).

[2] = tested on: SIRT6; experiment: SIRT6 transcription, semi-quantitative RT-PCR in human epidermal progenitors; format: cell-based; details: 72 h
Procedure: as §1, §2, §3, §4, §5, §6

[3] = tested on: SIRT7; experiment: SIRT7 transcription, semi-quantitative RT-PCR in human epidermal progenitors; format: cell-based; details: 72 h
Procedure: as §1, §2, §3, §4, §5, §6

[4] = in vitro; format: cell-based; details: human, human epidermal progenitors
Procedure: Proliferation rates were determined using a TACS® MTT Cell Proliferation Kit (R&D systems, Minneapolis, Minn.). Cells were seeded at 2.5×10^4/well in 96-well plates in a humidified atmosphere with 5 percent CO2 at 37 degrees Celsius. Twenty-four hours later, decapeptide-12 or oxyresveratrol were added to the corresponding wells at varying concentrations (0, 3, 10, 30, 100, 300, and 1000 μM), and cultures were then incubated for 72 hours. The remainder of the procedure was performed following the manufacturer's protocol.
(§7) Proliferation rates for three human cell lines (epidermal progenitors, melanoblasts, and fibroblasts) were determined using a TACS® MTT Cell Proliferation Kit. Cells were seeded at 2.5×10^4/well in 96-well plates in a humidified atmosphere with 5 percent CO2 at 37 degrees Celsius. Twenty-four hours later, the decapeptides were added to the corresponding wells at varying concentrations and incubated for 72 hours. The remainder of the procedure was performed following the manufacturer's protocol.

[5] = MTT cell proliferation assay, fibroblasts; format: cell-based, human; details: human, MTT, 72 h, read-out: fibroblast proliferation rate after 72 hours
Procedure: as §7

[6] = Trypan blue cell viability, 7 days, fibroblasts; format: cell-based; details: human, relative to control, read-out: fibroblast viability after 7 days
Procedure: The effect of each of the decapeptides upon cell viability was also tested. In particular, cells were incubated with the decapeptide at various concentrations and then counted for viability relative to the control (untreated cells) using trypan blue. Cytotoxicity was measured according to the following formula:
[1−(# of cells in control−# of live cells in test sample)/# of cells in control]×100 percent.

YRSRKYSSWY [decapeptide-12, YRSRKYSSWY]
SIRT5 transcription increase relative to control [1]: 92.1 ± 16.8% | SIRT6 transcription increase relative to control ([2]; 3 μM): 3 ± 1% | SIRT6 transcription increase relative to control ([2]; 10 μM): 21.3 ± 8.1% | SIRT6 transcription increase relative to control ([2]; 10 μM, listed as P4): 21 ± 8% | SIRT6 transcription increase relative to control ([2]; 30 μM): 52 ± 5.1% | SIRT6 transcription increase relative to control ([2]; 30 μM, listed as P4): 52 ± 5% | SIRT6 transcription increase relative to control ([2]; 50 μM): 95.4 ± 13.4% | SIRT6 transcription increase relative to control ([2]; 50 μM, listed as P4): 95 ± 13% | SIRT6 transcription increase relative to control ([2]; 100 μM): 147±8% and 147% | SIRT6 transcription increase relative to control ([2]; 100 μM, listed as Deca): 147 ± 8.4% | SIRT6 transcription increase relative to control ([2]; 100 μM, listed as P4): 147 ± 8% | SIRT6 transcription increase relative to control ([2]; 300 μM): 189 ± 9.5% | SIRT6 transcription increase relative to control ([2]; 300 μM, listed as P4): 189 ± 10% | SIRT6 transcription increase relative to control ([2]; 500 μM): 194 ± 14% | SIRT6 transcription increase relative to control ([2]; 1000 μM): 167 ± 12.2% | SIRT7 transcription increase relative to control ([3]; 3 μM): 5 ± 1% | SIRT7 transcription increase relative to control ([3]; 10 μM): 15 ± 4.2% | SIRT7 transcription increase relative to control ([3]; 10 μM, listed as P4): 15 ± 4% | SIRT7 transcription increase relative to control ([3]; 30 μM): 34.4 ± 9.2% | SIRT7 transcription increase relative to control ([3]; 30 μM, listed as P4): 34 ± 9% | SIRT7 transcription increase relative to control ([3]; 50 μM): 61.3 ± 10.2% | SIRT7 transcription increase relative to control ([3]; 50 μM, listed as P4): 61 ± 10% | SIRT7 transcription increase relative to control ([3]; 100 μM): 95.4±14% and 95±14% | SIRT7 transcription increase relative to control ([3]; 100 μM, listed as Deca): 95.4 ± 14.2% | SIRT7 transcription increase relative to control ([3]; 100 μM, listed as P4): 95 ± 14% | SIRT7 transcription increase relative to control ([3]; 300 μM): 148 ± 9.6% | SIRT7 transcription increase relative to control ([3]; 300 μM, listed as P4): 148 ± 10% | SIRT7 transcription increase relative to control ([3]; 500 μM): 171.4 ± 8.4% | SIRT7 transcription increase relative to control ([3]; 1000 μM): 181.1 ± 8.4% | viability at 72 h, 3 µM [4]: 100% | viability at 72 h, 10 µM [4]: 99 ± 1% | viability at 72 h, 30 µM [4]: 98 ± 1% | viability at 72 h, 50 µM [4]: 97 ± 1% | viability at 72 h, 100 µM [4]: 97 ± 1% | viability at 72 h, 300 µM [4]: 96 ± 1% | viability at 72 h, 500 µM [4]: 96 ± 2% | viability at 72 h, 1000 µM [4]: 94 ± 2% | viability at 72 h, 3 µM ([5]; 3 μM): 100% | viability at 72 h, 10 µM ([5]; 10 μM): 99 ± 1% | viability at 72 h, 30 µM ([5]; 30 μM): 99 ± 1% | viability at 72 h, 50 µM ([5]; 50 μM): 98 ± 1% | viability at 72 h, 100 µM ([5]; 100 μM): 97 ± 1% | viability at 72 h, 300 µM ([5]; 300 μM): 97 ± 1% | viability at 72 h, 500 µM ([5]; 500 μM): 97 ± 2% | viability at 72 h, 1000 µM ([5]; 1000 μM): 96 ± 2% | viability at 168 h, 3 µM ([6]; 3 μM): 100% | viability at 168 h, 10 µM ([6]; 10 μM): 98.6 ± 1% | viability at 168 h, 30 µM ([6]; 30 μM): 98.2 ± 1% | viability at 168 h, 50 µM ([6]; 50 μM): 97.8 ± 1% | viability at 168 h, 100 µM ([6]; 100 μM): 97.2 ± 1% | viability at 168 h, 300 µM ([6]; 300 μM): 95.6 ± 2% | viability at 168 h, 500 µM ([6]; 500 μM): 94.5 ± 2% | viability at 168 h, 1000 µM ([6]; 1000 μM): 93.8 ± 1%
